In patent US10617678B2, “Treatment of restenosis using temsirolimus” (MERCATOR MEDSYSTEMS, INC., priority 2016, dated 2020):
“Also recorded” adds a separate entry of the source.

How the values were obtained:
[1] = clinical observations, clinical pathology, post mortem tissue analysis; adventitial injection with Bullfrog device
[2] = Pharmacokinetics: whole blood concentrations after adventitial injection; assay type: in vivo, Yorkshire pigs
Procedure: Temsirolimus Preparation. The 25 mg/ml of Torisel® (temsirolimus) was diluted to 10 mg/ml with the supplied diluent and further diluted to 476 μg/ml in 0.9% sodium chloride solution. Then, the 476 μg/ml temsirolimus was mixed at 1:1 ratio with a contrast medium, Isovue-370, for a final temsirolimus concentration of 238 μg/ml. This temsirolimus preparation was subsequently administered in temsirolimus-treated group pigs. Similarly, a control solution was prepared by mixing 0.9% sodium chloride solution at 1:1 ratio with a contrast medium, Isovue-370. This control solution was administered in control group pigs.
Temsirolimus-Treated Group.
Pharmacokinetics. Whole blood samples were taken following each injection at 5 minutes, 20 minutes, 1 hour, and then 24 hours and upon sacrifice. Whole blood samples were analyzed for circulating temsirolimus and sirolimus concentrations. FIG. 14A and FIG. 14B show the levels of temsirolimus and sirolimus, respectively, circulating in whole blood at 1 hour, and 3, 7, and 28 days post-procedure. The mean temsirolimus level in whole blood was highest at 1 hour after the first injection (32.1±11.0 ng/mL) and decreased by an order of magnitude within 24 hours (2.4±1.0 ng/mL).

[3] = test system: cell proliferation in the vessel wall and adventitia; experiment: Ki-67 staining of cellular proliferation in injured femoral vessels; assay type: in vivo, Yorkshire pigs; details: day 3, 7 and 28; 1.5 ml of 238 μg/ml perivascular injection
[4] = Pharmacokinetics: concentrations in harvested vessel tissues; assay type: in vivo, Yorkshire pigs; details: post-dosing
[5] = test system: femoral artery injured by angioplasty overstretch; experiment: Histopathology in porcine model of femoral artery injury; assay type: in vivo, Yorkshire pigs
[6] = 1.5 ml of 238 μg/ml perivascular injection, injured femoral artery

CO[C@H]1C[C@@H]2CC[C@@H](C)[C@@](O)(O2)C(=O)C(=O)N2CCCC[C@H]2C(=O)O[C@H]([C@H](C)C[C@@H]2CC[C@@H](OC(=O)C(C)(CO)CO)[C@H](OC)C2)CC(=O)[C@H](C)/C=C(\C)[C@@H](O)[C@@H](OC)C(=O)[C@H](C)C[C@H](C)/C=C/C=C/C=C/1C [temsirolimus]
local or systemic toxicity [1]: no evidence of local or systemic toxicity | temsirolimus concentration in whole blood ([2]; 7 days post-procedure): below the limit of quantitation | temsirolimus concentration in whole blood ([2]; 28 days post-procedure): below the limit of quantitation | concentration at 1 h ([2]; Yorkshire, pig, whole blood, 357 µg per artery (1.5 ml of 238 µg/ml), 1 hour after the first injection, read-out: mean temsirolimus level in whole blood): 32.1 ± 11 ng/mL | concentration at 24 h ([2]; Yorkshire, pig, whole blood, 357 µg per artery (1.5 ml of 238 µg/ml), 24 hours, read-out: mean temsirolimus level in whole blood): 2.4 ± 1 ng/mL | temsirolimus concentration in whole blood ([2]; between 24 hours and 3 days): continued to decrease | cell proliferation throughout the vessel wall (Ki-67) compared to controls [3]: moderate to marked decrease; also recorded: reduced cellular proliferation | time temsirolimus was measured in local vascular tissue [4]: up to 28 days | neointima formation [5, 6]: no or minimal to mild and non-stenosing neointima formation | re-endothelialization [5, 6]: complete or near complete re-endothelialization | healing of treated vessels (histopathology) ([5]; 1.5 ml of 238 μg/ml temsirolimus into adventitia/perivascular tissue of each injured femoral artery): fully or nearly fully healed as early as day 7
